According to patent US20220040280A1, “INHIBITORS AND USES THEREOF” (UNIVERSITY OF CANBERRA, priority 2016, published 2022):

Columns and labels:
SNAIL [1] = experiment: Nuclear SNAIL in MDA-MB-231 cells treated with LSD1 inhibitors, confocal microscopy; type: cell-based, human; conditions: FIG. 30
Method: (§1) Confocal laser scanning microscopy was performed on either MDA-MB-231 cells treated with vehicle alone or MCF7 cells treated with vehicle alone or PMA for 60 h, and subsequently treated with a test inhibitor or vehicle alone. Test inhibitors include LSD1 siRNA or LSD1 catalytic inhibitors NCD36 (2-[N-(4-phenylbenzenecarbonyl)]amino-6-(trans-2-phenylcyclopropan-1-amino)-N-(3-methylbenzyl)hexanamide hydrochloride) or pargyline (Parg). Cells were fixed with 3.7% formaldehyde and permeabilized with 2% Triton-X-100, and then probed with a primary mouse antibody to LSD1 and a primary goat antibody to SNAIL, respectively, followed by the corresponding secondary antibodies conjugated to Alexa-Fluor 488 and […], respectively. TNFI values for MDA-MB-231, non-stimulated MCF7 and stimulated MCF7 cells were calculated. Data shown represent the mean±SE for at least 20 individual cells.

LSD1 [2] = target: T1, LSD1 (Homo sapiens, UniProt O60341); experiment: Nuclear LSD1 in MDA-MB-231 cells treated with LSD1 inhibitors, confocal microscopy; type: cell-based; conditions: FIG. 30
T1 construct: endogenous in cells; host or cells: MCF7 (non-stimulated or PMA-stimulated) and MDA-MB-231 breast cancer cells
Method: as §1

SNAIL [3] = experiment: Nuclear SNAIL in MCF7 cells treated with LSD1 inhibitors, confocal microscopy; type: cell-based, human; conditions: MCF7 cells stimulated with PMA for 60 hours, FIGS. 28 and 29
Method: as §1

LSD1 [4] = target: T1, LSD1; experiment: Nuclear LSD1 in MCF7 cells treated with LSD1 inhibitors, confocal microscopy; type: cell-based; conditions: MCF7 cells stimulated with PMA for 60 hours, FIGS. 28 and 29
Method: as §1

[5] = test system: LSD1 phosphorylated at serine 111 (LSD1s111p); experiment: LSD1s111p in MCF7 cells treated with PKC inhibitors, confocal microscopy; type: cell-based, human; conditions: FIG. 26
Method: (§2) Confocal laser scanning microscopy was performed on either MDA-MB-231 cells treated with vehicle alone or MCF7 cells treated with vehicle alone or PMA for 60 hours. To assess the effect of the PKC inhibitors, C27 (Compound 27; (R)-2-((S)-4-(3-chloro-5-fluoro-6-(1H-pyrazolo[3,4-b]pyridine-3-yl)pyridine-2-yl)piperazin-2-yl)-3-methylbutan-2-ol; see Jimenez et al. (2013) J. Med. Chem., 56(5): 1799-1810) or bisindolylmaleimide (BIM), cells were then treated with C27, BIM or vehicle. Cells were fixed with 3.7% formaldehyde and permeabilized with 2% Triton-X-100, and were then probed with primary rabbit antibody to PKC-θ and a primary mouse antibody to LSD1 or LSD1 phosphorylated at serine 111 (LSD1s111p), respectively, followed by the corresponding secondary antibody conjugated to Alexa-Fluor 488 or Alexa-Fluor 568. Total nuclear fluorescence (TNFI) values for non-stimulated and stimulated MCF7 and MDA-MB-231 cells were calculated. […] The plot-profile feature of ImageJ was used to plot the fluorescence signal intensity along a single line spanning the nucleus (n=5 lines per nucleus, 5 individual cells). The average fluorescence signal intensity for the indicated pair of antibodies was plotted for each point on the line with SE. […] The PCC was determined for each plot profile, which indicates the strength of relation between the two fluorochrome signals for at least 20 individual cells ±SE. […]

[6] = test system: LSD1 phosphorylated at serine 111 (LSD1s111p); experiment: LSD1s111p in MDA-MB-231 cells treated with PKC inhibitors, confocal microscopy; type: cell-based, human; conditions: FIG. 26
Method: as §2

cytokeratin [7] = conditions: CTCs from two metastatic breast cancer patient liquid biopsies, FIG. 16
Method: (§4) Cells were permeabilised by incubating with 2% Triton X-100 for 20 min. Cells were probed with either rabbit antibodies to LSD1s111p (Merck ABE1462), EGFR (AB2430), MET (ab51067), PD-L1 (sc-50298), goat antibodies to PD-L1 (sc-19091), SC-14033), (sc-19096), mouse antibodies to Cytokeratin (Miltenyi 130-090-866), CSV (Abnova H00007431-M08), vimentin (SC-6260) followed by visualisation with secondary anti mouse Alexa-Fluor 568 (A10037), secondary anti rabbit Alexa-Fluor 488 (A21206) or secondary anti goat Alexa-Fluor 633 (A21082). Cover slips were mounted on glass microscope slides with ProLong Diamond Antifade© reagent (Life Technologies). Antibody staining was localised by confocal laser scanning microscopy. Single 0.5 μm sections were obtained using a Nikon x 60 oil immersion lens on the Nikon C1 plus confocal system running NIS-Elements AR 3.2 software. […] Digital confocal images were analysed using ImageJ software (ImageJ, NIH, Bethesda, Md., USA) to determine the nuclear/cytoplasmic fluorescence ratio (Fn/c) using the equation: Fn/c=(Fn−Fb)/(Fc−Fb), where Fn is nuclear fluorescence, Fc is cytoplasmic fluorescence, and Fb is background fluorescence or the Total Nuclear Fluorescence (TNFI), the Total Cytoplasmic Fluorescence (TCFI) or Total cell fluorescence. […] Florescence intensity was also measured in a minimum of n=10 cells for each sample set. […]

LSD1s111p [8] = target: T2, LSD1s111p (Homo sapiens, UniProt O60341); experiment: Confocal microscopy of LSD1s111p in patient circulating tumor cells; type: cell-based; conditions: CTCs from two metastatic breast cancer patient liquid biopsies, FIG. 16
T2 construct: endogenous in cells; host or cells: circulating tumor cells from metastatic breast cancer patient blood
Text: (§3) Cells were probed with either rabbit antibodies to LSD1s111p (Merck ABE1462), EGFR (AB2430), MET (ab51067), PD-L1 (sc-50298), goat antibodies to PD-L1 (sc-19091), SC-14033), (sc-19096), mouse antibodies to Cytokeratin (Miltenyi 130-090-866), CSV (Abnova H00007431-M08), vimentin (SC-6260) followed by visualisation with secondary anti mouse Alexa-Fluor 568 (A10037), secondary anti rabbit Alexa-Fluor 488 (A21206) or secondary anti goat Alexa-Fluor 633 (A21082).

SNAIL [9] = conditions: CTCs from metastatic breast cancer patients, in all but one patient, FIG. 17
Method: as §4

PD-L1 [10] = conditions: CTCs from metastatic breast cancer patients, in all but one patient, FIG. 17
Method: as §4

PD-L2 = conditions: CTCs from two metastatic breast cancer patient liquid biopsies, FIG. 16
Method: as §4

LSD1s111p [11] = experiment: Confocal microscopy of LSD1s111p in xenografted MDA-MB-231 cells; type: in vivo, mouse; conditions: xenograft MDA-MB-231 cells; Abraxane 60 mg/kg, Docetaxel 10 mg/kg, Phenelzine 41 mg/kg; relative to vehicle control
Text: as §3
The nuclear intensity of LSD1s111p was measured using confocal laser scanning microscopy in xenografted MDA-MB-231 cells treated with vehicle alone or Abraxene (60 mg/kg) or Docetaxel (10 mg/kg). Cells were fixed with 3.7% formaldehyde and permeabilized with 2% Triton-X-100, and then probed with a primary rabbit antibody to LSD1s111p, followed by the corresponding secondary antibody conjugated to Alexa-Fluor 488. Total nuclear fluorescence (TNFI) values for xenografted MDA-MB-231 cells were calculated. Data shown represents the mean±SE for at least 20 individual cells.

PD-L1 [12] = experiment: Confocal microscopy of PD-L1 in xenografted MDA-MB-231 cells; type: in vivo, mouse; conditions: xenograft MDA-MB-231 cells; Abraxane 60 mg/kg, Phenelzine 41 mg/kg, FIG. 9
Text: as §3

cytokeratin [13] = experiment: Confocal microscopy of cytokeratin in xenografted MDA-MB-231 cells; type: in vivo, mouse; conditions: xenograft MDA-MB-231 cells; Abraxane 60 mg/kg, Phenelzine 41 mg/kg, FIG. 9
Text: as §3

[14] = test system: cell surface vimentin (CSV); experiment: Confocal microscopy of cell surface vimentin in xenografted MDA-MB-231 cells; type: in vivo, mouse; conditions: xenograft MDA-MB-231 cells; Abraxane 60 mg/kg, Phenelzine 41 mg/kg, FIG. 10
Text: as §3

EGFR = experiment: Confocal microscopy of EGFR in xenografted MDA-MB-231 cells; type: in vivo, mouse; conditions: xenograft MDA-MB-231 cells; Abraxane 60 mg/kg, Docetaxel 10 mg/kg, Phenelzine 41 mg/kg; relative to vehicle control
Text: as §3

SNAIL [15] = experiment: Confocal microscopy of SNAIL in xenografted MDA-MB-231 cells; type: in vivo, mouse; conditions: xenograft MDA-MB-231 cells; Abraxane 60 mg/kg, Docetaxel 10 mg/kg; relative to vehicle
Text: as §3

MET = experiment: Confocal microscopy of MET in xenografted MDA-MB-231 cells; type: in vivo, mouse; conditions: xenograft MDA-MB-231 cells; Abraxane 60 mg/kg, Docetaxel 10 mg/kg, FIG. 11
Text: as §3

| nuclear fluorescence signal of LSD1 (LSD1 [2]) | nuclear fluorescence signal of LSD1 (LSD1 [4]) | expression of LSD1s111p (TCFI) (LSD1s111p [8]) | Compound | nuclear fluorescence signal of SNAIL (SNAIL [1]) | nuclear fluorescence signal of SNAIL (SNAIL [3]) | LSD1 phosphorylation (LSD1s111p, TNFI) [5] | LSD1 phosphorylation (LSD1s111p, TNFI) [6] | expression of cytokeratin (TCFI) (cytokeratin [7]) | SNAIL expression (total cell fluorescence) (SNAIL [9]) | PD-L1 expression (total cell fluorescence) (PD-L1 [10]) | expression of PD-L2 (TCFI) (PD-L2) | LSD1s111p expression, nuclear fluorescent signal (TNFI) (LSD1s111p [11]) | EGFR nuclear expression (TNFI) (EGFR) | further results |
| --- | --- | --- | --- | --- | --- | --- | --- | --- | --- | --- | --- | --- | --- | --- |
| significantly abrogated | significantly abrogated | – | Cc1cccc(CNC(=O)C(CCCCN[C@@H]2C[C@H]2c2ccccc2)NC(=O)c2ccc(-c3ccccc3)cc2)c1.Cl (relative stereo) [NCD36, 2-[N-(4-phenylbenzenecarbonyl)]amino-6-(trans-2-phenylcyclopropan-1-amino)-N-(3-methylbenzyl)hexanamide hydrochloride] | significantly abrogated | significantly abrogated | – | – | – | – | – | – | – | – | – |
| – | – | – | CC(C)[C@@](C)(O)[C@@H]1CN(c2nc(-c3n[nH]c4ncccc34)c(F)cc2Cl)CCN1 [Peptide C27, (R)-2-((S)-4-(3-chloro-5-fluoro-6-(1H-pyrazolo[3,4-b]pyridine-3-yl)pyridine-2-yl)piperazin-2-yl)-3-methylbutan-2-ol] | – | – | significantly abrogated | significantly abrogated | – | – | – | – | – | – | – |
| significantly abrogated | significantly abrogated | significant knockdown | C#CCN(C)Cc1ccccc1 [Pargyline, pargyline] | significantly abrogated | significantly abrogated | – | – | significant knockdown | significant knockdown | significant knockdown | significant knockdown | – | – | – |
| – | – | significant knockdown | NNCCc1ccccc1 [Phenelzine, (+)-2-phenylethylhydrazine] | – | – | – | – | significant knockdown | significant knockdown | significant knockdown | significant knockdown | inhibitory effect | inhibitory effect | PD-L1 expression in the cytoplasm (TCFI) (PD-L1 [12]): significantly abrogated; PD-L1 expression in the nucleus (TNFI) (PD-L1 [12]): significantly abrogated; PD-L1 nuclear bias (Fn/c) (PD-L1 [12]): higher; total PD-L1 expression (PD-L1 [12]): significantly reduced; cytokeratin expression (cytokeratin [13]): abrogated; cell surface vimentin (CSV) cytoplasmic expression (TCFI) [14]: abrogated |
| – | – | – | CC(=O)O[C@@]12CO[C@@H]1C[C@H](O)[C@@]1(C)C(=O)[C@H](O)C3=C(C)[C@@H](OC(=O)[C@H](O)[C@@H](NC(=O)OC(C)(C)C)c4ccccc4)C[C@@](O)([C@@H](OC(=O)c4ccccc4)[C@H]21)C3(C)C [Docetaxel] | – | – | – | – | – | – | – | – | significantly increased | significantly increased | SNAIL nuclear fluorescent signal (TNFI) (SNAIL [15]): significantly increased; MET nuclear expression (TNFI) (MET): significantly increased |
| – | – | – | bisindolylmaleimide [BIM] | – | – | significantly abrogated | significantly abrogated | – | – | – | – | – | – | – |
